Test results as given in publication PMC3684770 (Free Radical Biology & Medicine, 2013).
Like-named read-outs stand apart in the source and are kept apart here.

Tests used:
Nrf2-ARE pathway = experiment: ARE reporter assay in CHO 4xARE-TK-GFP cells (Spectrum library hits); conditions: for Fold GFP induction: average fold over baseline at the maximal response, CHO cells; for Fold GFP induction / maximal fold induction: 24 h; for Toxic dose: lowest dose at which a reduction in GFP fluorescence was observed; for maximal fold induction: CHO, read-out: Fold GFP induction
Description: The Z′ score was calculated as follows Z′=1−(3SD^++3SD^−)/(Ave^+–Ave^−) where SD^+ = standard deviation of positive control wells; SD^− = standard deviation of negative control wells; Ave^+ = average fluorescence reading of positive control wells; Ave^− = average fluorescence reading of negative control wells.
Media was removed by hand and replaced (1 compound/well) with the Spectrum library diluted to 10 μM in 0.1% DMSO using a Q-bot liquid handling system (Genetix, New Milton, UK). […] The TK-GFP CHO ARE cell line was screened twice in a single point assay and the control TK-GFP CHO cell line was screened once to eliminate false positives.
The compounds were applied in triplicate to confluent cells in 96 well plates in serum free medium for 24 hours and the induction of GFP measured in a fluorescence plate reader.
In order to screen the Spectrum collection of 2000 molecules the reporter assay was optimised in […]. To assess the suitability of the assay for library screening, a Z’ score calculation was performed by treating alternate wells with vehicle (0.1% DMSO) and 10 µM Ebselen as a positive control (see calculation in Methods). […] The library was subsequently screened at a single point concentration of 10µM for every compound. Drug library dilutions and plating were performed with a Q-BOT liquid handling system and both the 4xARE-TK-GFP reporter cell line and TK-GFP control cell line were tested for their response to the compounds. Hits were identified as having data points more than three standard deviations above the background level, which was the average value of 24 wells treated with vehicle (0.1% DMSO) only. Hit compounds were checked to see if they generated a response in the control cell line, for example by non-specific activation of transcription or autofluorescence. […] The library screen was repeated once in the 4xARE –TK-CHO cell line and compounds classed as hits in both screens were taken forward for further assessment.

C6 astrocyte cell line = experiment: C6 oxidative stress assay (serum withdrawal, DCF); conditions: for C6 oxidative stress assay Toxic dose: minimum dose at which toxicity was observed; for IC50: read-out: C6 oxidative stress assay IC50; for Emax: 24 h, read-out: C6 oxidative stress assay Max reduction
Description: (§1) Media were then replaced with serum-free, phenol-free media for 5 h.

NSC34 cells = experiment: NSC34 oxidative stress assay (serum withdrawal, DCF); conditions: for NSC34 oxidative stress assay Toxic dose: minimum dose at which toxicity was observed; for Emax: Mus musculus, NSC-34, 24 h, read-out: NSC34 oxidative stress assay Max reduction
Description: as §1

[1] = test system: 1321N1 astrocyte cell line; experiment: 1321N1 oxidative stress assay (serum withdrawal, DCF); conditions: for 1321N1 oxidative stress assay Toxic dose: minimum dose at which toxicity was observed; for Emax: 1321-N1, 24 h, read-out: 1321N1 oxidative stress assay Max reduction
Description: as §1

[2] = maximum % inhibition of DCF signal
[3] = Homo sapiens, 1321-N1, read-out: 1321N1 oxidative stress assay IC50

## 3β Hydroxydeoxydesacetoxy-7-oxogedunin
Nrf2-ARE pathway; CHO ARE reporter, 7-point concentration response
  EC50: 8.71 µM
Nrf2-ARE pathway
  Fold GFP induction: 2.55 fold
  Toxic dose: 30 µM
C6 astrocyte cell line; [2]
  C6 oxidative stress assay Max reduction: 67%
C6 astrocyte cell line
  C6 oxidative stress assay Toxic dose: None
C6 astrocyte cell line; 24-h preconditioning, 6-h serum withdrawal, DCF fluorescence
  IC50: 3.07 µM
NSC34 cells; maximum % inhibition of DCF signal, negative = prooxidant
  NSC34 oxidative stress assay Max reduction: 0%
NSC34 cells
  NSC34 oxidative stress assay Toxic dose: 3 µM
[1]; [2]
  1321N1 oxidative stress assay Max reduction: 62%
[1]
  1321N1 oxidative stress assay Toxic dose: None
[1]; read-out: 1321N1 oxidative stress assay IC50, 24-h preconditioning, 6-h serum withdrawal, DCF fluorescence
  IC50: 3.96 µM

## C=C(C)/C=C1/C=CC(=O)C(C)=C1 [Retusoquinone]
Nrf2-ARE pathway
  Toxic dose: 100 µM
C6 astrocyte cell line; Rattus norvegicus, Astrocyte
  Emax: 15%
  IC50: 2.06 µM
C6 astrocyte cell line
  C6 oxidative stress assay Toxic dose: none
NSC34 cells
  Emax: -25%
  NSC34 oxidative stress assay Toxic dose: none
[1]; Homo sapiens
  Emax: 0%
[1]
  1321N1 oxidative stress assay Toxic dose: none

## CC1=C2C(=CO[C@H](C)[C@H]2C)C(O)=C(C(=O)O)C1=O [Citrinin]
Nrf2-ARE pathway; Cricetulus griseus
  EC50: 4.1 µM
Nrf2-ARE pathway
  Fold GFP induction: 3.26 fold
  Toxic dose: 30 µM
C6 astrocyte cell line; Rattus norvegicus, Astrocyte
  Emax: 23%
  IC50: 20 µM
C6 astrocyte cell line
  C6 oxidative stress assay Toxic dose: none
NSC34 cells
  Emax: 0%
  NSC34 oxidative stress assay Toxic dose: none
[1]; Homo sapiens
  Emax: 28%
[1]; [3]
  IC50: 0.338 µM
[1]
  1321N1 oxidative stress assay Toxic dose: none

## O=c1c2ccccc2[se]n1-c1ccccc1 [Ebselen, reference compound]
Nrf2-ARE pathway; Cricetulus griseus
  EC50: 4 µM
Nrf2-ARE pathway; Cricetulus griseus, read-out: approximate EC90
  EC90: ~10 µM
Nrf2-ARE pathway
  Toxic dose: 100 µM
C6 astrocyte cell line; Rattus norvegicus, Astrocyte
  Emax: 30%
C6 astrocyte cell line
  C6 oxidative stress assay Toxic dose: none
NSC34 cells
  Emax: -80%
  NSC34 oxidative stress assay Toxic dose: none
[1]; Homo sapiens
  Emax: 20%
[1]; [3]
  IC50: 0.193 µM
[1]
  1321N1 oxidative stress assay Toxic dose: none

## Cc1[nH]c2ccccc2c1CN(C)C [2-Methyl gramine]
Nrf2-ARE pathway; Cricetulus griseus
  EC50: 3 µM
  maximal fold induction: 2.27
Nrf2-ARE pathway
  Toxic dose: 100 µM
C6 astrocyte cell line; Rattus norvegicus, Astrocyte
  Emax: 36%
  IC50: 32 µM
C6 astrocyte cell line
  C6 oxidative stress assay Toxic dose: none
NSC34 cells
  Emax: -30%
  NSC34 oxidative stress assay Toxic dose: 3 µM
[1]; Homo sapiens
  Emax: 36%
[1]; [3]
  IC50: 11 µM
[1]
  1321N1 oxidative stress assay Toxic dose: none

## C=CC(C1=CC(=O)C=CC1=O)c1ccccc1 (stereo not drawn) [Dalbergione]
Nrf2-ARE pathway; Cricetulus griseus
  EC50: 2.47 µM
Nrf2-ARE pathway
  Toxic dose: 30 µM
C6 astrocyte cell line; Rattus norvegicus, Astrocyte
  Emax: 40%
  IC50: 46 µM
C6 astrocyte cell line
  C6 oxidative stress assay Toxic dose: None
NSC34 cells
  Emax: 0%
  NSC34 oxidative stress assay Toxic dose: None
[1]; Homo sapiens
  Emax: 38%
[1]; [3]
  IC50: 64 µM
[1]
  1321N1 oxidative stress assay Toxic dose: None

## COC(=O)[C@H](O)[C@H]1C(C)(C)[C@H](OC(C)=O)[C@@H]2CC3=C4CC(=O)O[C@@H](c5ccoc5)[C@]4(C)CC[C@@H]3[C@@]1(C)C2=O [Swietenolide 3 acetate]
Nrf2-ARE pathway; Cricetulus griseus
  EC50: 3.5 µM
  maximal fold induction: 2.82
Nrf2-ARE pathway
  Toxic dose: 100 µM
C6 astrocyte cell line; Rattus norvegicus, Astrocyte
  Emax: 50%
  IC50: 4.22 µM
C6 astrocyte cell line
  C6 oxidative stress assay Toxic dose: none
NSC34 cells
  Emax: 0%
  NSC34 oxidative stress assay Toxic dose: 0.3 µM
[1]; Homo sapiens
  Emax: 60%
[1]
  1321N1 oxidative stress assay Toxic dose: none

## CC1=CC(=O)C(C(C)C)=CC1=O [Thymoquinone]
Nrf2-ARE pathway
  Toxic dose: 30 µM
C6 astrocyte cell line; Rattus norvegicus, Astrocyte
  Emax: 32%
  IC50: 0.014 µM
C6 astrocyte cell line
  C6 oxidative stress assay Toxic dose: None
NSC34 cells
  Emax: 0%
  NSC34 oxidative stress assay Toxic dose: None
[1]; Homo sapiens
  Emax: 25%
[1]; [3]
  IC50: 11 µM
[1]
  1321N1 oxidative stress assay Toxic dose: None

## CC(=O)OC1CC[C@@]2(C)C(CC[C@H]3[C@@H]4CC=C(C(C)=O)[C@@]4(C)C(=O)C[C@@H]32)C1 (stereo partly drawn) [3 Acetoxypregn-16-en-12,20-dione]
Nrf2-ARE pathway; Cricetulus griseus
  EC50: 2.98 µM
Nrf2-ARE pathway
  Toxic dose: 30 µM
C6 astrocyte cell line; Rattus norvegicus, Astrocyte
  Emax: 50%
  IC50: 5.34 µM
C6 astrocyte cell line
  C6 oxidative stress assay Toxic dose: None
NSC34 cells
  Emax: 0%
  NSC34 oxidative stress assay Toxic dose: None
[1]; Homo sapiens
  Emax: 75%
[1]; [3]
  IC50: 12.4 µM
[1]
  1321N1 oxidative stress assay Toxic dose: None

## CC1(C)C(=O)C=C[C@]2(C)[C@H]3CC[C@@]4(C)[C@H](c5ccoc5)OC(=O)[C@H]5O[C@]54[C@]3(C)[C@H](O)C[C@@H]12 [Deacetylgedunin]
Nrf2-ARE pathway; Cricetulus griseus
  EC50: 3.5 µM
Nrf2-ARE pathway
  Fold GFP induction: 3.05 fold
  Toxic dose: 30 µM
C6 astrocyte cell line; Rattus norvegicus, Astrocyte
  Emax: 70%
  IC50: 5.36 µM
C6 astrocyte cell line
  C6 oxidative stress assay Toxic dose: None
NSC34 cells
  Emax: 0%
  NSC34 oxidative stress assay Toxic dose: None
[1]; Homo sapiens
  Emax: 28%
[1]; [3]
  IC50: 2.37 µM
[1]
  1321N1 oxidative stress assay Toxic dose: 10 µM

## COc1ccc2c(c1)OC/C(=C/c1ccc(OC)c(OC)c1)C2=O [Sappanone A trimethyl ether]
Nrf2-ARE pathway; Cricetulus griseus
  EC50: 3.5 µM
  maximal fold induction: 1.99
Nrf2-ARE pathway
  Toxic dose: 100 µM
C6 astrocyte cell line; Rattus norvegicus, Astrocyte
  Emax: 27%
C6 astrocyte cell line
  C6 oxidative stress assay Toxic dose: none
NSC34 cells
  Emax: -60%
  NSC34 oxidative stress assay Toxic dose: none
[1]; Homo sapiens
  Emax: 40%
[1]; [3]
  IC50: 0.279 µM
[1]
  1321N1 oxidative stress assay Toxic dose: none

## C=C1C(=O)O[C@H]2[C@H]1CC/C(C)=C/CC[C@@]1(C)O[C@@H]21 [Parthenolide]
Nrf2-ARE pathway; Cricetulus griseus
  EC50: > 100 µM
  maximal fold induction: 2.77
Nrf2-ARE pathway
  Toxic dose: 100 µM
C6 astrocyte cell line; Rattus norvegicus, Astrocyte
  Emax: 81%
  IC50: 3.11 µM
C6 astrocyte cell line
  C6 oxidative stress assay Toxic dose: None
NSC34 cells
  Emax: 0%
  NSC34 oxidative stress assay Toxic dose: 1 µM
[1]; Homo sapiens
  Emax: 47%
[1]; [3]
  IC50: 28.4 µM
[1]
  1321N1 oxidative stress assay Toxic dose: None

## S=C=NCc1ccccc1 [Benzyl isothiocyanate]
Nrf2-ARE pathway; Cricetulus griseus
  EC50: 24 µM
Nrf2-ARE pathway
  Toxic dose: None
C6 astrocyte cell line; Rattus norvegicus, Astrocyte
  Emax: 27%
  IC50: 3.47 µM
C6 astrocyte cell line
  C6 oxidative stress assay Toxic dose: none
NSC34 cells
  Emax: -28%
  NSC34 oxidative stress assay Toxic dose: none
[1]; Homo sapiens
  Emax: 8%
[1]
  1321N1 oxidative stress assay Toxic dose: none

## O=C1C=C2C=C[C@@H]3C[C@@]2(O1)[C@H]1CCCCN31 [Securinine]
Nrf2-ARE pathway; Cricetulus griseus
  EC50: 2.12 µM
  maximal fold induction: 3
Nrf2-ARE pathway
  Toxic dose: 30 µM
C6 astrocyte cell line; Rattus norvegicus, Astrocyte
  Emax: 67%
  IC50: 0.645 µM
C6 astrocyte cell line
  C6 oxidative stress assay Toxic dose: None
NSC34 cells
  Emax: 20%
  NSC34 oxidative stress assay Toxic dose: None
[1]; Homo sapiens
  Emax: 55%
[1]; [3]
  IC50: 18.3 µM
[1]
  1321N1 oxidative stress assay Toxic dose: None

## COc1cc(O)cc(OC)c1OC [Antiarol]
Nrf2-ARE pathway
  Toxic dose: 100 µM
C6 astrocyte cell line; Rattus norvegicus, Astrocyte
  Emax: 23%
  IC50: 3.05 µM
C6 astrocyte cell line
  C6 oxidative stress assay Toxic dose: 10 µM
NSC34 cells
  Emax: -50%
  NSC34 oxidative stress assay Toxic dose: 10 µM
[1]; Homo sapiens
  Emax: 35%
[1]
  1321N1 oxidative stress assay Toxic dose: none
